# Test results published in patent US8987294B2, “Small molecule inhibitors of the α4-paxillin interaction” (The Regents of the University of California, priority 2009, dated 2015).
# pIC50: −log10 of the molar value.
# Columns and labels:
# Jurkat T cells [1] = experiment: Modified Boyden chamber migration, Jurkat T cells on ICAM-1 (αLβ2-mediated); format: cell-based
# Description: (§1) Cell migration was assayed in a modified Boyden chamber assay system as described previously (8). For Jurkat T cell migration, transwell (Costar) polycarbonate membranes containing 3-μm pores were coated with 10 μg/ml CS-1, an α4 integrin binding fragment of fibronectin or 20 μg/ml ICAM in 0.1M NaHCO3, pH 8.0 overnight at 4° C. Membranes were blocked with 2% BSA in PBS for 30 minutes at room temperature. 2.0×10^5 Jurkat T cells in RPMI 1640 with 10% fetal bovine serum were added to the top chamber. Stromal-derived factor-1α (SDF-1α, R&D Systems, Minneapolis, Minn.) at a final concentration of 15 ng/ml in RPMI 1640 with 10% fetal bovine serum was added to the bottom chamber. Cells were allowed to migrate for 5 hours at 37° C. Cells in the bottom chamber were enumerated with a hemacytometer. Small molecule inhibitors were added to the top and bottom chamber in the indicated concentrations.
# CHO-S998A cells = experiment: Spreading assay, CHO-S998A cells on CS-1; format: cell-based, Chinese Hamster; details: CS-1 coated cover slips, 45 minutes
# Description: (§2) Cell spreading was performed as described (11, 34). Briefly, CHO cells or Jurkat cells resuspended in Dulbecco's modified Eagle's medium or RPMI 1640, respectively, containing 0.5% fetal bovine serum and 0.2% BSA were plated on coverslips coated with 3 μg/ml GST-CS-1 in 12 well plates in the presence or absence of the small molecule inhibitor. […] The cell area was measured and analyzed using the ImageJ software. At least three independent experiments were performed and in each experiment at least 30 cells were analyzed.
# [2] = target: T1, interaction of leupaxin with α4-integrin (Homo sapiens, UniProt O60711); experiment: ELISA, leupaxin binding to immobilized α4 tail
# T1 construct: Biotinylated α4-integrin cytoplasmic tail was coated to the plates; 6xHis (N); biotin acceptor peptide […]; made in house; host or cells: Escherichia coli
# T1 sequence (O60711 1-386): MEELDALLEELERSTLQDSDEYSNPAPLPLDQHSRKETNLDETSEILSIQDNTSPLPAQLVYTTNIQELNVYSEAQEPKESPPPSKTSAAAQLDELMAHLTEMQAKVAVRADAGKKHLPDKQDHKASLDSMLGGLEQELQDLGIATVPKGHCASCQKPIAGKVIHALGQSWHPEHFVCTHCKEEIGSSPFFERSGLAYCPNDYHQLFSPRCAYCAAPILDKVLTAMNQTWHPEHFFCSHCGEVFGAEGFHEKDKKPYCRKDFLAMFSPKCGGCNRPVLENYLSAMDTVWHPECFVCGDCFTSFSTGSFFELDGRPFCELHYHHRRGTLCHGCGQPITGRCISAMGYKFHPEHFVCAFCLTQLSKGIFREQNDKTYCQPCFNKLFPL
# Description: (§3) Thermo Electron High Binding 96 or 384 well plates were coated with 1 μg/ml neutravidin (Pierce) in 0.05M NaHCO3 pH 9.5 over night at 4° C. After blocking with 1% heat inactivated BSA in PBS for 1 hour at room temperature, plates were incubated with 1 μg/ml of recombinant αIIb-tail or α4-tail FAT or Git-1 in 1% BSA in PBS for one hour at room temperature. Plates were washed twice with 0.2% Tween in PBS to remove unbound protein and incubated with 10 μg/ml HA-tagged leupaxin or paxillin in 0.2% Tween/1% BSA in PBS in the presence or absence of small molecule compounds (5 mM DMSO stock solutions). […] Plates were washed twice and bound leupaxin or paxillin was detected by incubating with the first antibody (12CA5 ascites, 1:10,000 in 0.2% Tween/1% BSA in PBS) for 1 hour at room temperature and then with the secondary antibody (HPR-conjugated anti mouse, Biosource, 1:1,000 in 0.2% Tween, 1% BSA, PBS for 1 hour at room temperature. Binding was quantified after addition of ECL solution on a Victor luminescence plate reader. 0% inhibition control was measured with leupaxin and no compound and 100% inhibition control (background) was measured with no leupaxin and no compound. Each well was duplicated and percent inhibition was averaged. (FIG. 1A)
# Inhibition of the α4 leupaxin interaction was measured using the above described ELISA assay. Biotinylated α4-integrin cytoplasmic tail was coated to the plates and incubated with increasing concentrations of leupaxin in the presence of different concentrations of inhibitor or no inhibitor. The data were fitted to equations for models of competitive, non-competitive, uncompetitive of mixed inhibition using Graph Pad Prism 5.0 to test which model fits the best.
# C57B1/6 mice = experiment: Thioglycollate-induced peritonitis; format: in vivo
# Description: Male C57B1/6 mice 5-6 weeks old were injected intraperitoneally with 1 ml sterile 4% (wt/vol) thioglycollate (Sigma-Aldrich). Mice were injected with 16.5 mg/kg 6-B345TTQ, 6-234TTQ or the equal volume of vehicle only every 8-12 hours. At various time points after injection, mice were sacrificed and subjected to peritoneal lavage with 4 ml PBS containing 5 mM EDTA and 1% BSA. Total leukocytes in lavage samples were enumerated with a hemocytometer. Cells (1×10^5) were attached to glass slides with a Cytospin4 instrument (ThermoSharidon) and stained with modified Wright-Giemsa stain. Differential cell counts were performed on 5 individual fields, each containing 100 cells by light microscopy.
# [3] = tested on: Jurkat T cells expressing a mutated α4-integrin (α4(Y991A)); experiment: Modified Boyden chamber migration, JB4-Y991A cells; format: cell-based
# Description: as §1
# Jurkat T cells [4] = experiment: Modified Boyden chamber migration, Jurkat T cells on CS-1; format: cell-based; details: Homo sapiens, 5 hours towards SDF-1α, read-out: inhibition of T-cell migration
# Description: as §1
# Jurkat T cells [5] = experiment: Spreading assay, Jurkat T cells on CS-1; format: cell-based; details: 180 minutes after plating on CS-1
# Description: as §2
# [6] = target: T2, interaction of paxillin with α4-integrin (Homo sapiens, UniProt P49023); experiment: ELISA, paxillin binding to immobilized α4 tail; details: 10 μg/ml paxillin; read-out: IC50, inhibition of paxillin binding to α4-integrin
# T2 construct: 6xHis (N); biotin acceptor peptide […]; made in house; host or cells: Escherichia coli
# T2 sequence (P49023 whole entry): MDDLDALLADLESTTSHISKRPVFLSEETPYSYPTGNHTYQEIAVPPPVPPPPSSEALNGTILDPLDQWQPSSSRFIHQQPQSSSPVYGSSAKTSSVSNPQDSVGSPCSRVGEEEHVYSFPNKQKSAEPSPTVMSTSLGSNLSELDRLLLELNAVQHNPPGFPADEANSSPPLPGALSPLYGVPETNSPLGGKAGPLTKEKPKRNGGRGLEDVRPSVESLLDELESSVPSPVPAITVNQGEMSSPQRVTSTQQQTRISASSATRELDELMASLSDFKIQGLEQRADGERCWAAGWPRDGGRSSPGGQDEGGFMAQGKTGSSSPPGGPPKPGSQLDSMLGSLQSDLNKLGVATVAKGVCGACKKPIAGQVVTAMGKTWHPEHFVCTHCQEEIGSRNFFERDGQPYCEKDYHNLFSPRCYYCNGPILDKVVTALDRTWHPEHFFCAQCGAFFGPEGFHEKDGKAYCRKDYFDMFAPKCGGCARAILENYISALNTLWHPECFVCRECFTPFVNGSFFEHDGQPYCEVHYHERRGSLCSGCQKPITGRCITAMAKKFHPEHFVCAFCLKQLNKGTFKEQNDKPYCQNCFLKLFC
# Description: as §3
# Jurkat T cells [7] = experiment: Cytotoxicity assay (CellTiter 96 Aqueous One Solution); format: cell-based; details: concentrations up to 100 μM for 24 h
# Description: The cytotoxicity effect of compounds on cultivated cells was determined using the CellTiter 96® Aqueous One Solution Cell Proliferation Assay (Promega, Madison, Wis.) according to the manufacturer's guidelines.
# THP-1 cells = experiment: Modified Boyden chamber migration, THP-1 cells on CS-1; format: cell-based; details: Homo sapiens, 3 hours, read-out: inhibition of monocyte migration
# Description: as §1
# THP-1 cells were cultured in RPMI1640 containing 0.1% fetal bovine serum for 16 hours before 1×10^6 cells were added to the top chamber of transwells with CS1-coated membranes that contained 5-μm pores and allowed to migrate for 3 hours towards RPMI containing 0.1% fetal bovine serum.
# [8] = target: T3, interaction of FAT with paxillin (Homo sapiens, UniProt P49023); experiment: ELISA, paxillin binding to immobilized FAT
# T3 construct: Recombinant 6×His-FAT, the focal adhesion targeting domain of pp125^FAK; 6xHis (N); made in house; host or cells: E. coli BL21(DE3)pLysS
# T3 sequence (P49023 whole entry, the tested form may be a part): as the sequence (P49023 whole entry) above
# Description: as §3
# [9] = target: T4, interaction of leupaxin with the focal adhesion targeting sequence of pp125^FAK (FAT) (Homo sapiens, UniProt O60711); experiment: ELISA, leupaxin binding to immobilized FAT; details: concentrations up to 100 μM
# T4 construct: Recombinant 6×His-FAT, the focal adhesion targeting domain of pp125^FAK; 6xHis (N); made in house; host or cells: E. coli BL21(DE3)pLysS
# T4 sequence (O60711 1-386): T1 sequence (O60711 1-386)
# Description: as §3
# [10] = tested on: CHO wildtype cells that do not express α4; experiment: Spreading assay, CHO wildtype cells on fibronectin; format: cell-based, Chinese Hamster; details: plated on fibronectin; data not shown
# Description: as §2, with “containing 0.5% fetal bovine serum and 0.2% BSA were plated on coverslips coated with 3 μg/ml GST-CS-1 in 12 well plates in the” left out
# [11] = target: T5, interaction of GIT-1 with leupaxin (Homo sapiens, UniProt O60711); experiment: ELISA, leupaxin binding to immobilized Git-1; details: read-out: IC50, inhibition of interaction of GIT-1 with leupaxin
# T5 sequence (O60711 1-386): T1 sequence (O60711 1-386)
# Description: as §3
# [12] = target: T6, native paxillin and α4-integrin (Homo sapiens, UniProt P49023); experiment: Coimmunoprecipitation of α4 with paxillin from Jurkat T cells; format: binding; details: anti-biotin blot
# T6 construct: endogenous in cells; host or cells: Jurkat T cells
# T6 sequence (P49023 whole entry): as above
# Description: For endogenous Coimmunoprecipitation experiments, Jurkat T-cells were washed in ice-cold PBS and incubated in 1.6 mM Sulfo-NHS-Biotin (Pierce, Chemical Co.) for 30 minutes at room temperature. Excess biotin was quenched and washed from the cells with PBS/Glycine. Cell lysates were then prepared with lysis buffer containing 20 mM Tris, pH 7.4, 150 mM NaCl, 10 mM EDTA, 1% Triton X-100, 0.05% Tween 20 and a protease inhibitor cocktail (Roche Diagnostics Corp.). Lysate containing 200 μg total cell protein was immunoprecipitated using 2 μg rabbit anti paxillin (RB-4358). Immunoprecipitated proteins were separated by SDS-PAGE (8% Bis-Tris, denaturating and reducing) and transferred to nitrocellulose membranes. Precipitated, biotinylated proteins were detected using HRP-Streptavidin (1:10,000).
# [13] = target: interaction of GIT-1 with paxillin (Homo sapiens, UniProt P49023); experiment: ELISA, paxillin binding to immobilized Git-1; details: read-out: IC50, inhibition of interaction of GIT-1 with paxillin
# Chain of interaction of GIT-1 with paxillin (P49023 whole entry): as above
# Description: as §3
compound,measurement,setting,value
COc1cc(C2CC(=O)Nc3c2cc(Br)c2ccccc32)cc(OC)c1OC (centres unmarked) [6-B345TTQ],effect on αLβ2-mediated Jurkat T cell migration on ICAM-1,Jurkat T cells [1],not significantly reduced
same,spreading of CHO-S998A cells,CHO-S998A cells,increased the spreading of CHO-S998A cells to a level comparable with CHO-S998D cells
same,pIC50,"[2]; 10 μg/ml leupaxin, read-out: IC50, inhibition of leupaxin binding to α4-integrin",4.74
same,nature of inhibition of the α4 leupaxin interaction,"[2]; increasing leupaxin, various inhibitor concentrations, model fit Graph Pad Prism 5.0",competitive inhibitor
same,α-value of mixed model of inhibition,[2]; mixed model fit,~2.958×10^12
same,reduction of infiltration of peritoneal monocytes/macrophages,"C57B1/6 mice; 16.5 mg/kg every 8-12 hours i.p., 48 hours after thioglycollate",50%
same,recruitment of lymphocytes to the peritoneum,"C57B1/6 mice; 16.5 mg/kg every 8-12 hours, 48 hours and 72 hours after thioglycollate",reduction was not statistically significant
same,recruitment of neutrophils,"C57B1/6 mice; 16.5 mg/kg every 8-12 hours, vs vehicle",no difference
same,residual α4-dependent migration of α4(Y991A) Jurkat T cells,[3],not further decreased
same,inhibition at 50 µM,Jurkat T cells [4],56.4%
same,spreading of Jurkat T cells,Jurkat T cells [5],dose dependent increase
same,pIC50,[6],4.97
same,cytotoxicity (cell viability),Jurkat T cells [7],not cytotoxic
same,inhibition at 50 µM,THP-1 cells,52.6%
same,inhibition of the interaction of FAT with paxillin,[8],did inhibit
same,effect on the binding of FAT to leupaxin,[9],no effect
same,spreading of CHO wildtype cells,[10],not increased
same,pIC50,[11],4.60
same,amount of α4 co-immunoprecipitated with paxillin,[12],decreased with increasing concentrations
same,pIC50,[13],5.62
